Test results: patent publication US10899754B2, “Modulators of indoleamine 2,3-dioxygenase” (GLAXOSMITHKLINE INTELLECTUAL PROPERTY DEVELOPMENT LIMITED, priority 2016, dated 2021)

What was measured:
Format in all cases: cell-based
[1] = target: T1, indoleamine 2, 3-dioxygenase (IDO1) (Homo sapiens, UniProt P14902); assay: IDO1 HeLa RapidFire MS assay (kynurenine detection by mass spectrometry); parameters: to induce the expression of indoleamine 2, 3-dioxygenase (IDO1); settings: HeLa cells, pIC50, read-out: IDO1_HELA_PXC50 (converted)
T1 sequence (P14902 whole entry): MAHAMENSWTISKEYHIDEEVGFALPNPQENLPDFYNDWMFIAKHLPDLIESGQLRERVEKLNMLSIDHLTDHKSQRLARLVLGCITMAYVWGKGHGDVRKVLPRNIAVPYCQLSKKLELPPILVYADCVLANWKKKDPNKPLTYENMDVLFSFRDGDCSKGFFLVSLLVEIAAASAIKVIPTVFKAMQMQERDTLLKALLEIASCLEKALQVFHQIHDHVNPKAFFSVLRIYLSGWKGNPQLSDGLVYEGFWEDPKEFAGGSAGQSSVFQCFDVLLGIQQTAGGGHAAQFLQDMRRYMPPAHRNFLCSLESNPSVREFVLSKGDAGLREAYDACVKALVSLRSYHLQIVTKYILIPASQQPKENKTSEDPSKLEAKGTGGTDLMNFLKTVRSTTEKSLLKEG
Summary of the method: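 Compound potency reported as pIC50 from kynurenine/internal-standard ratio (RapidFire MS) in supernatant of IFN-γ-induced (10 nM) HeLa cells, 5,000 per well, after 2 days' treatment with 11-point dilutions. Cytotoxicity in the same format by luminescent ATP detection, reported as pCC50.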

[2] = target: T1, indoleamine 2, 3-dioxygenase (IDO1); assay: IDO1 PBMC RapidFire MS assay (kynurenine detection by mass spectrometry); parameters: to induce the expression of indoleamine 2, 3-dioxygenase (IDO1); host or cells: human PBMC stimulated with IFN-gamma and LPS; settings: human PBMC stimulated with IFN-γ and LPS, 2 days, pIC50, read-out: PBMC PXC50 (converted)
Summary of the method: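 Kynurenine output, read by RapidFire mass spectrometry as ratio to an internal standard, was measured after 2-day compound exposure (11-point, 3-fold dilutions) of human PBMCs induced with 100 ng/ml IFN-γ and 50 ng/ml LPS. Cell viability tracked alongside via ATP luminescence; XC50 from curve fitting.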

[3] = test system: human epithelial HeLa cells; assay: HeLa cytotoxicity assay (CellTiter-Glo); settings: pCC50
Summary of the method: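 Read-out is CellTiter-Glo luminescence after 2 days at 37 °C, on IFN-γ-stimulated (10 nM) HeLa cells seeded at 5,000/well with compounds in 11-point 3-fold dose series. pCC50 from four-parameter curve fit; wells without cells set 100% cytotoxicity, stimulated cells with DMSO set 0%.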

[4] = test system: human peripheral blood mononuclear cells (PBMC); assay: PBMC cytotoxicity assay (CellTiter-Glo); settings: 2 days, pCC50
Summary of the method: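 % cytotoxicity was taken from CellTiter-Glo luminescence, using wells without cells and stimulated DMSO wells as references, and fitted by four-parameter curve to give XC50. Cells were human PBMC at 50,000 per well, activated with 100 ng/ml IFN-γ plus 50 ng/ml LPS. Incubation with 11-point, 3-fold dilution series ran for 2 days at 37 °C.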

Structure (SMILES)	IC50 [1] [µM]	IC50 [2] [µM]	HELA_IDO1_TOX_PXC50 [3]	PBMC TOX PXC50 [4]
CC(C)CN(c1ccc(C(C)(C)CC(=O)O)cc1Nc1ccc(Cl)cn1)C1CCOCC1 [Example 4, 3-(3-((5-chloropyridin-2-yl)amino)-4-(isobutyl(tetrahydro-2H-pyran-4-yl)amino)phenyl)-3-methylbutanoic Acid]	0.00631	0.00398	<5	<5
Cc1nnc(Nc2cc([C@H](C)CC(=O)O)ccc2N(CC(C)C)C2CCOCC2)s1 [example 215, (3R)-3-{3-[(5-methyl-1,3,4-thiadiazol-2-yl)amino]-4-[(2-methylpropyl)(oxan-4-yl)amino]phenyl}butanoic acid]	0.02	0.0316	<5	<5
CC[C@H](CC(=O)O)c1ccc(N(CC(C)C)CC(C)C)c(Nc2nc(C(F)(F)F)ns2)c1 [Example 39, (R)-3-(4-(diisobutylamino)-3-((3-(trifluoromethyl)-1,2,4-thiadiazol-yl)amino)phenyl)pentanoic Acid]	0.00251	0.001	<5	<5
CC[C@@H](CC(=O)O)c1ccc(N(CC(C)C)C2CCCCC2)c(Nc2nc(Cl)ns2)c1 [example 166, (3S)-3-{3-[(3-chloro-1,2,4-thiadiazol-5-yl)amino]-4-[cyclohexyl(2-methylpropyl)amino]phenyl}pentanoic acid]	0.01	0.000316	<5	5.1
CC(C)CN(c1ccc(C(C)CC(=O)O)cc1NC1=NC(=O)[C@H](c2ccccc2)N1)C1CCCCC1 (stereo partly drawn) [example 165, 3-{4-[cyclohexyl(2-methylpropyl)amino]-3-{[(5S)-4-oxo-5-phenyl-4,5-dihydro-1H-imidazol-2-yl]amino}phenyl}butanoic acid]	0.794	1.58	<5	<5
CC(C)CN(c1ccc([C@H](C)CC(=O)O)cc1Nc1nc(C(F)(F)F)ns1)C1CCN(C(=O)OC(C)C)CC1 [Example 65, (R)-3-(4-(isobutyl(1-(isopropoxycarboxyl)piperidin-4-yl)amino)-3-((3-(trifluoromethyl)-1,2,4-thiadiazol-5-yl)amino)phenyl)butanoic Acid]	0.00398	0.00126	<5	<5
CC(C)CN(CC(C)C)c1ccc(C(C)CC(=O)O)cc1Nc1ncccn1 (stereo not shown) [example 156, 3-{4-[bis(2-methylpropyl)amino]-3-[(pyrimidin-2-yl)amino]phenyl}butanoic acid]	> 10	7.94	<5	<5
COCCN(c1ccc(-c2ccccc2C(=O)O)cc1Nc1nc2ccccc2o1)C1CCCCC1 [example 284, 3′-[(1,3-benzoxazol-2-yl)amino]-4′-[cyclohexyl(2-methoxyethyl)amino]-[1,1′-biphenyl]-2-carboxylic acid]	0.398	0.2	<5	<5
CC(C)CN(CC(C)C)c1ccc(C(C)CC(=O)O)cc1NC1CCCCC1 (stereo not shown) [example 157, 3-{4-[bis(2-methylpropyl)amino]-3-(cyclohexylamino)phe-nyl}butanoic acid]	1	0.794	<5	<5
CC(C)CN(c1ccc([C@H](C)CC(=O)O)cc1Nc1ccc(C(F)(F)F)cn1)C1CCCCC1 [Example 76, (R)-3-(4-(cyclohexyl(isobutyl)amino)-3-((5-(trifluoromethyl)pyridin-2-yl)amino)phenyl)butanoic Acid]	0.00398	0.00251	<5	<5
CNC(=O)N1CCC(N(CC(C)C)c2ccc([C@H](C)CC(=O)O)cc2Nc2nc(C(F)(F)F)ns2)CC1 [example 262, (3R)-3-(4-{[1-(methylcarbamoyl)piper-idin-4-yl](2-methylpropyl)amino}-3-{[3-(trifluoromethyl)-1,2,4-thiadiazol-5-yl]amino}phenyl)butanoic acid]	0.1	0.02	<5	<5
CC(C)CN(c1ccc(C(C)OCC(=O)O)cc1Nc1ccc(C#N)cn1)C1CCCCC1 (stereo not shown) [Example 113, 2-(1-(3-((5-cyanopyridin-2-yl)amino)-4-(cyclohexyl(isobutyl)amino)phenyl)ethoxy)acetic Acid]	0.01	0.00501	<5	<5
CC(C)CN(CC(C)C)c1ccc([C@H](C)CC(=O)NS(C)(=O)=O)cc1Nc1nc(C(F)(F)F)ns1 [Example 109, (R)-3-(4-(diisobutylamino)-3-((3-(trifluoromethyl)-1,2,4-thiadiazol-5-yl)amino)phenyl)-N-(methylsulfonyl)butanamide]	0.0316	0.01	<5	<5
CC(C)CN(c1ccc([C@H](C)Cc2nnn[nH]2)cc1Nc1nc(Cl)ns1)C1CCCCC1 [Example 102, (R)-4-(1-(1H-tetrazol-5-yl)propan-2-yl)-N^2-(3-chloro-1,2,4-thiadiazol-5-yl)-N^1-cyclohexyl-N^1-isobutylbenzene-1,2-diamine]	0.00794	0.00501	<5	<5
CC(C)CN(c1ccc([C@H](C)CC(=O)O)cc1Nc1nc(C2CC2)cs1)C1CCOCC1 [example 211, (3R)-3-{3-[(4-cyclopropyl-1,3-thiazol-2-yl)amino]-4-[(2-methylpropyl)(oxan-4-yl)amino]phenyl}butanoic acid]	0.0251	0.02	<5	<5
CC(C)CN(c1ccc(-c2ccccc2C(=O)O)cc1Nc1nc(C(F)(F)F)ns1)[C@H]1CC[C@H](O)CC1 [Example 112, 4′-(((1r,4r)-4-hydroxycyclohexyl) (isobutyl)amino)-3′-((3-(trifluoromethyl)-1,2,4-thiadiazol-5-yl)amino)-[1,1′-biphenyl]-2-carboxylic Acid]	0.0158	0.00794	<5	6.1
CC(C)CN(c1ccc([C@H](C)CC(=O)O)cc1NC1CCC1)C1CCCCC1 [example 181, (3R)-3-[3-(cyclobutylamino)-4-[cyclohexyl(2-methylpropyl)amino]phenyl]butanoic acid]	0.316	0.158	<5	<5
COCc1nnc(Nc2cc([C@H](C)CC(=O)O)ccc2N(CC(C)C)C2CCCCC2)[nH]1 [Example 82, (R)-3-(4-(cyclohexyl(isobutyl)amino)-3-((5-(methoxymethyl)-4H-1,2,4-triazol-3-yl)amino)phenyl)butanoic Acid]	0.0158	0.00794	<5	<5
CC(C)CN(c1ccc(C(C)CC(=O)O)cc1NC1=N[C@@H](C(F)(F)F)CS1)C1CCCCC1 (stereo partly drawn) [example 154, 3-{4-[cyclohexyl(2-methylpropyl)amino]-3-{[(4S)-4-(trifluoromethyl)-4,5-dihydro-1,3-thiazol-2-yl]amino}phenyl}butanoic acid]	0.0316	0.02	<5	<5
CC[C@H](CC(=O)O)c1ccc(N(CC(C)C)C2CCCCC2)c(Nc2nc(C(F)(F)F)ns2)c1 [Example 38, (R)-3-(4-(cyclohexyl(isobutyl)amino)-3-((3-(trifluoromethyl)-1,2,4-thiadiazol-5-yl)amino)phenyl)pentanoic Acid]	0.002	0.000794	<5	<5
COCCc1nnc(Nc2cc([C@H](C)CC(=O)O)ccc2N(CC(C)C)CC(C)C)[nH]1 [example 203, (3R)-3-{4-[bis(2-methylpropyl)amino]-3-{[5-(2-methoxyethyl)-4H-1,2,4-triazol-3-yl]amino}phenyl}butanoic acid]	0.0631	0.0316	<5	<5
CC(C)CN(c1ccc(C(C)CC(=O)O)cc1NC1=N[C@@H](C)CO1)C1CCCCC1 (stereo partly drawn) [example 152, 3-{4-[cyclohexyl(2-methylpropyl)amino]-3-{[(4S)-4-methyl-4,5-dihydro-1,3-oxazol-2-yl]amino}phenyl}butanoic acid]	3.16	3.16	5.4	<5
